In patent publication US7989467B2, “Use of indole-derived compounds for the preparation of a medicament that can be used to treat diseases related to the splicing process” (Centre National de la Recherche Scientifique (CNRS), priority 2003, dated 2011):

These compounds were tested against T1, SRp55 (Homo sapiens, UniProt Q13247) (assay: In vitro splicing results, Table 3: SRp55). Conditions: summary of Table 3.
T1 sequence (Q13247 1-344): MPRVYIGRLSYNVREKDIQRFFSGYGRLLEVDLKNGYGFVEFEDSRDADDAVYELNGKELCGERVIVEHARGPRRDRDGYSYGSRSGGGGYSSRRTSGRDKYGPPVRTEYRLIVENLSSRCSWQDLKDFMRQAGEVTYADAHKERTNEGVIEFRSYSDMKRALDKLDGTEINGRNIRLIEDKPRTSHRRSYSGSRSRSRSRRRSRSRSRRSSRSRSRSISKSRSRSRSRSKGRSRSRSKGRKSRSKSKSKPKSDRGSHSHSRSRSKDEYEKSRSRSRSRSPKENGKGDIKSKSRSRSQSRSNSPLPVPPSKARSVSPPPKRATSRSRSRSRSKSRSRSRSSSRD
Assay type: biochemical

| SMILES | inhibit the activity of the SRp55 protein specifically |
| --- | --- |
| Cc1c2ccnc(NCCC(C)C)c2c(C)c2c1[nH]c1ccc(O)cc12 [C19, 5,11-dimethyl-1-(3-methyl-butylamino)-6H-pyrido[4,3-b]carbazol-9-ol] | inhibit the activity of the SRp55 protein specifically |
| COc1ccc2[nH]c3c(C)c4ccnc(NCCN5CCCC5)c4cc3c2c1 [C42, (9-methoxy-5-methyl-6H-pyrido[4,3-b]carbazol-1-yl)-(2-pyrrolidin-1-yl-ethyl)-amine] | inhibit the activity of the SRp55 protein specifically |
| Cc1cnc(NCCCN(C)C)c2c1[nH]c1c3cccc(O)c3ccc12 [C76, 7-(3-dimethylamino-propylamino)-10-methyl-11H-benzo[g]pyrido[4,3-b]indol-4-ol] | inhibit the activity of the SRp55 protein specifically |
| COc1ccc2ccc3[nH]c4c(C)cnc(NCCCN(C)C)c4c3c2c1 [C77, N′-(2-methoxy-8-methyl-7H-benzo[e]pyrido[4,3-b]indol-11-yl)-N,N-dimethyl-propane-1,3-diamine] | inhibit the activity of the SRp55 protein specifically |
| CCN(CC)CCCNc1ncc(C)c2c1c1ccc3ccccc3c1n2C [C78, N′-(10,11-dimethyl-11H-benzo[g]pyrido[4,3-b]indol-7-yl)-N,N-diethyl-propane-1,3-diamine] | inhibit the activity of the SRp55 protein specifically |
| Cc1cnc(NCCCN(C)C)c2c3c4ccccc4ccc3n(C)c12 [C79, N′-(7,8-dimethyl-7H-benzo[e]pyrido[4,3-b]indol-11-yl)-N,N-dimethyl-propane-1,3-diamine] | inhibit the activity of the SRp55 protein specifically |
| Cc1cnc(NCCCN(C)C)c2c1[nH]c1c3ccccc3ccc12 [C80, N,N-dimethyl-N′-(10-methyl-11H-benzo[g]pyrido[4,3-b]indoi-7-yl)-propane-1,3-diamine] | inhibit the activity of the SRp55 protein specifically |
| CCN(CC)CCCNc1ncc(C)c2[nH]c3c4ccccc4ccc3c12 [C82, N,N-diethyl-N′-(10-methyl-11H-benzo[g]pyrido[4,3-b]indol-7-yl)-propane-1,3-diamine] | inhibit the activity of the SRp55 protein specifically |
| COc1cccc2c1ccc1c3c(NCCCN(C)C)ncc(C)c3n(C)c21 [C85, N′-(4-methoxy-10,11-dimethyl-11H-benzo[g]pyrido[4,3-b]indol-7-yl)-N,N-dimethyl-propane-1,3-diamine] | inhibit the activity of the SRp55 protein specifically |
| Cc1cnc(NCCCN(C)C)c2c1[nH]c1ccc3ccccc3c12 [C87, N,N-dimethyl-N′-(8-methyl-7H-benzo[e]pyrido[4,3-b]indol-11-yl)-propane-1,3-diamine] | inhibit the activity of the SRp55 protein specifically |
| Cc1cnc(NCC(C)CN(C)C)c2c1[nH]c1ccc3cc(O)ccc3c12 (stereo not shown) [C88, 11-(3-dimethylamino-2-methyl-propylamino)-8-methyl-7H-benzo[e]pyrido[4,3-b]indol-3-ol] | inhibit the activity of the SRp55 protein specifically |
| COc1cccc2c1ccc1[nH]c3c(C)cnc(NCCCN(C)C)c3c12 [C93, N′-(4-methoxy-8-methyl-7H-benzo[e]pyrido[4,3-b]indol-11-yl)-N,N-dimethyl-propane-1,3-diamine] | inhibit the activity of the SRp55 protein specifically |
| COc1ccc2c(ccc3[nH]c4c(C)cnc(NCCCCCCN)c4c32)c1 [C95, N-(3-methoxy-8-methyl-7H-benzo[e]pyrido[4,3-b]indol-11-yl)-hexane-1,6-diamine] | inhibit the activity of the SRp55 protein specifically |

These compounds were tested on HIV (assay: Inhibition of HIV multiplication in PMA-stimulated U1 cells (RT-PCR of viral transcripts)). Conditions: 2.5 μM; 24 h; U1 cells treated with 50 nM PMA; FIG. 6.
Assay type: cell-based
Source text: To this end, human […] cell line U1, which is chronically infected by HIV (Folks et al., 1988. Characterization of a promonocyte clone chronically infected with HIV and inducible by 13-phorbol-12-myristate acetate. J. Immunol., 140: 1117-1122) and which produces large quantities of virus after stimulation by PMA (phorbol myristate acetate), was used. As a result, this cell line constitutes an excellent model to mimic the transition between the latency phase and the viral production phase observed in patients infected by HIV.
The results of this experiment are presented in FIG. 6 in which U1 cells (5×10^5) were treated with 50 nM of PMA in the absence (FIG. 6, lane 1) or in the presence of 2.5 μM of compounds C47, C97, C58, C57, C92, C91, C90, C83, C73, C34, C51, C45, C13, C10, C44, C6, C7, C41, C50, C32, C2, C1, C29, C35 and C99 (FIG. 6, lanes 3-27, respectively). After 24 h of treatment, the virus's transcripts were amplified by RT-PCR using specific VIH, BSS and SJ4.7A primers (Jacquenet et al., 2001, A second exon splicing silencer within human immunodeficiency virus type 1 tat exon 2 represses splicing of Tat mRNA and binds protein hnRNP. H. J. Biol. Chem. 276: 40464-75) and a radioactive tracer (α-32P) CTP.

| SMILES | inhibition of HIV multiplication (amplification of viral transcripts) |
| --- | --- |
| COc1ccc2c(c1)c1c(C)c3c(NCCCN(C)C)nccc3c(C)c1n2C [C1, N′-(9-methoxy-5,6,11-trimetyl-6H-pyrido[4,3-b]carbazol-1-yl)-N,N-dimethyl-propane-1,3-diamine] | excellent inhibitors of HIV multiplication |
| C=CCNc1nccc2c(C)c3[nH]c4ccc(OC)cc4c3c(C)c12 [C10, allyl-(9-methoxy-5,11-dimethyl-6H-pyrido[4,3-b]carbazol-1-yl)-amine] | excellent inhibitors of HIV multiplication |
| COc1ccc2[nH]c3c(C)c4ccnc(NCCCCCCNc5c6cc7c([nH]c8ccc(OC)cc87)c(C)c6cc[n+]5C)c4cc3c2c1.[I-] [C13, 9-methoxy-1-[6-(9-methoxy-5-methyl-6H-pyrido[4,3-b]carbazol-1-ylamino)-hexylamino]-2,5-dimethyl-6H-pyrido[4,3-b]carbazol-2-ium iodide] | excellent inhibitors of HIV multiplication |
| CCN(CC)CCNc1nccc2c(C)c3c(c(C)c12)c1cc(OC)ccc1n3C [C29, N,N-diethyl-N′-(9-methoxy-5,6,11-trimethyl-6H-pyrido[4,3-b]carbazol-1-yl)-ethane-1,2-diamine] | excellent inhibitors of HIV multiplication |
| Cc1c2ccnc(NCCCN(C)C)c2cc2c3cnccc3n(C)c12 [C32, N′-(5,6-dimethyl-5H-pyrido[3′4′:4,5]pyrrolo[2,3-g]isoquinolin-10-yl)-N,N-dimethyl-propane-1,3-diamine] | excellent inhibitors of HIV multiplication |
| CCN(CC)CCCNc1nccc2c(C)c3[nH]c4ccc(O)cc4c3cc12 [C35, 1-(3-diethylamino-propylamino)-5-methyl-6H-pyrido[4,3-b]carbazol-9-ol] | excellent inhibitors of HIV multiplication |
| CCN(CC)CCCNc1nccc2c(C)c3[nH]c4ccc(OC)cc4c3c(C)c12 [C41, N,N-diethyl-N′-(9-methoxy-5,11-dimethyl-6H-pyrido[4,3-b]carbazol-1-yl)-propane-1,3-diamine] | excellent inhibitors of HIV multiplication |
| CCN(CC)CC(O)CNc1nccc2c(C)c3[nH]c4ccc(OC)cc4c3cc12 (stereo not shown) [C44, 1-diethylamino-3-(9-methoxy-5-methyl-6H-pyrido[4,3-b]carbazol-1-ylamino)-propan-2-ol] | excellent inhibitors of HIV multiplication |
| COc1ccc2c(ccc3c2[nH]c2c(C)cnc(NCCCCN)c23)c1 [C47, N-(3-methoxy-10-methyl-11H-benzo[g]pyrido[4,3-b]indol-7-yl)-butane-1,4-diamine] | excellent inhibitors of HIV multiplication |
| CCN(CC)CCCNc1nccc2c(C)c3[nH]c4ccncc4c3cc12 [C51, N-N,diethyl-N′-(6-methyl-5H-pyrido[3′,4′:4,5]pyrrolo[2,3-g]isoquinolin-10-yl)-propane-1,3-diamine] | excellent inhibitors of HIV multiplication |
| COc1cccc2c1ccc1c2[nH]c2c(C)cnc(N)c21 [C83, 4-methoxy-10-methyl-11H-benzo[g]pyrido[4,3-b]indol-7-ylamine] | excellent inhibitors of HIV multiplication |
| COc1ccc2c(ccc3c2[nH]c2c(C)cnc(NCCCN)c23)c1 [C91, N-(3-methoxy-10-methyl-11H-benzo[g]pyrido[4,3-b]indol-7-yl)-propane-1,3-diamine] | excellent inhibitors of HIV multiplication |
| COc1ccc2c(ccc3[nH]c4c(C)cnc(NCCCN(C)C)c4c32)c1 [C92, N′-(3-methoxy-8-methyl-7H-benzo[e]pyrido[4,3-b]indol-11-yl)-N,N-dimethyl-propane-1,3-diamine] | excellent inhibitors of HIV multiplication |
| COc1ccc2c(ccc3c2[nH]c2c(C)cnc(NCCCN(C)CCCN)c23)c1 [C97, N-[3-(3-methoxy-10-methyl-11H-benzo[g]pyrido[4,3-b]indol-7-ylamino)-propyl]-N-methyl-propane-1,3-diamine] | excellent inhibitors of HIV multiplication |
| CCNCCCNc1nccc2c(C)c3c(cc12)c1cnccc1n3C [C99, N-(5,6-dimethyl-5H-pyrido[3′4′:4,5]pyrrolo[2,3-g]isoquinolin-10-yl)-N′-ethyl-propane-1,3-diamine] | excellent inhibitors of HIV multiplication |
